Laboratory results reported in patent publication US20190055279A1, “NOVEL POLYPEPTIDES WITH IMPROVED PROTEOLYTIC STABILITY, AND METHODS OF PREPARING AND USING SAME” (TUFTS UNIVERSITY, priority 2015, published 2019).
“And” between values parts separate entries of the source, which are not always exact repeats. Equal entries are not always repeated. Where two headings read alike, the source gives them in different places. Blank lines part the entries; values can stand above or below the compound they belong to.

Key:
[1] = target: T1, FAP (Homo sapiens, UniProt Q12884)
T1 sequence (Q12884 1-760): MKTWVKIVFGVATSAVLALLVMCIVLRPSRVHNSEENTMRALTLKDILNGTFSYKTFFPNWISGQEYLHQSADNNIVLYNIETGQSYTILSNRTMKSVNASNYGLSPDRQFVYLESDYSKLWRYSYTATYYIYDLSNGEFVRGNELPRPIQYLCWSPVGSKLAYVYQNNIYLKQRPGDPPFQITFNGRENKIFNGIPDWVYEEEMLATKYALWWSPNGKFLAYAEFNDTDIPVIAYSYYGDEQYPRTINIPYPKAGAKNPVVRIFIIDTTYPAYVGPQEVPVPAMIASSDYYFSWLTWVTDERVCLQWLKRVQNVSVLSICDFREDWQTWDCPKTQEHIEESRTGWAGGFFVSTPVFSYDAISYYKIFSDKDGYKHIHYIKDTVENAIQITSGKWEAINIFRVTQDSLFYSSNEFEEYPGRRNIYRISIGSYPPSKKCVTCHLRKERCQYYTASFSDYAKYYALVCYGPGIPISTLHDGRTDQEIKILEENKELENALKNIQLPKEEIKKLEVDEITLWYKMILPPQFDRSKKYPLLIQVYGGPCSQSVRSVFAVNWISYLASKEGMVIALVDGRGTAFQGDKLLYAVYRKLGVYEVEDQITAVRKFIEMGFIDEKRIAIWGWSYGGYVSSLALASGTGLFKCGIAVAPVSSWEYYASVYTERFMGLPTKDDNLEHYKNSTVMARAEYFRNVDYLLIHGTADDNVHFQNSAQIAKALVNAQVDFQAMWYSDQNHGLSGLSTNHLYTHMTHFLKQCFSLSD

[2] = target: T2, DPP2 (Homo sapiens, UniProt Q9UHL4)
[3] = target: T1, FAP; test: Stability assay with or without FAP, read out by receptor bioassay (FIG. 9A, FIG. 18); settings: incubated with or without FAP
[4] = target: T2, DPP2; test: Stability assay with or without DPP2, read out by receptor bioassay (FIG. 9A); settings: incubated with or without DPP2
[5] = target: T3, DPP4 (Homo sapiens, UniProt P27487); test: DPP4 degradation of GLP-2 peptides: incubation with recombinant DPP4, then GLP-2R reporter assay
T3 sequence (P27487 whole entry, species assumed): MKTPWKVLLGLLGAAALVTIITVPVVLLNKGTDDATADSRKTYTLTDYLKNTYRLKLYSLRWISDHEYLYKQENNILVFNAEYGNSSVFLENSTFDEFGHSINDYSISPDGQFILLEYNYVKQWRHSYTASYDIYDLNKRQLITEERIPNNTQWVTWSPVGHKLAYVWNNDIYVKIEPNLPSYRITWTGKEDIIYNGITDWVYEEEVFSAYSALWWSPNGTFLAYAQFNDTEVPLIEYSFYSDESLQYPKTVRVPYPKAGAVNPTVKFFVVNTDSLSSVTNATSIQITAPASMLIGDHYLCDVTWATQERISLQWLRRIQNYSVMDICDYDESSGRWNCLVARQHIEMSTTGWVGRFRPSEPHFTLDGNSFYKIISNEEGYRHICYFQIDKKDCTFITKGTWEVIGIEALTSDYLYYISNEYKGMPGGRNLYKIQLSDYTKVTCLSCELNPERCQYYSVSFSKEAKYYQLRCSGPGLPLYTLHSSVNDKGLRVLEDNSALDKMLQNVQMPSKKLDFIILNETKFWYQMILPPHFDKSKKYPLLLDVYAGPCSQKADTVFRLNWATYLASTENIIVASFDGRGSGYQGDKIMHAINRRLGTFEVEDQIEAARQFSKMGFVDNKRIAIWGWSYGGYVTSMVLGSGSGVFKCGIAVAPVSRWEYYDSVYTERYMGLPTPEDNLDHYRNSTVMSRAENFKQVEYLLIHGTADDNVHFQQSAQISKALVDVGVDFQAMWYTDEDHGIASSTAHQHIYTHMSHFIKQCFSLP
Protocol: (§1) Peptides were incubated with vehicle or recombinant DPP4. Serial dilutions of GLP2-1 and GLP2-4 were then applied to HEK293 cells, which had been transfected with cDNA encoding human GLP-2R and a cAMP-responsive reporter gene.
(§2) Peptides were incubated with recombinant DPP4. Serial dilutions of GLP-2 and GLP2-4 were then applied to HEK293 cells, which had been transfected with cDNA encoding human GLP-2R and a cAMP-responsive reporter gene. […] N=4, mean+SEM.
(§3) DPP4 resistance (FIG. 13): Lipidated peptides are compared with the prototype, F-GLP2-palm. After an overnight incubation (16 hrs) in the presence vs. the absence of DPP4, receptor mediated function is assessed as shown elsewhere herein. As a DPP4 susceptible control, parallel experiments are done using GLP-2. […] Following overnight preincubation, serial dilutions of ligands were prepared and added to GLP-2R expressing cells for 4 hours. A luciferase reporter gene assay was used to monitor Gαs coupled second messenger signaling.

[6] = cited from earlier work
[7] = system: SBS patients; settings: after 52 weeks of treatment; cited from earlier work
[8] = system: wild type mice; settings: GLP-2 twice daily over ten days; GATTEX daily; cited from earlier work
[9] = target: T3, DPP4
Protocol: as §1, §2, §3

[10] = target: T3, DPP4; test: Sensitivity to DPP4: overnight incubation with recombinant DPP4 or vehicle, then receptor agonist bioassay; settings: overnight incubation with or without DPP4, readout at cognate receptor
Protocol: Plotting concentration versus the luciferase activity yielded quantitative parameters for combined binding (potency) and signaling (efficacy) in a single step. […] DPP4 treated peptides: 10 μl of 0.26 mM peptide were incubated with 2 μL DPP4 in buffer ±DMSO for 18 hrs. Control peptides: 10 μl of 0.26 mM peptide was added to buffer ±DMSO. The final DMSO concentration was the same for all peptides and all peptides were diluted to 0.26 mM concentrations for the DPP4 assay.
Compounds are incubated overnight at 37° C. in the presence of recombinant DPP4 or vehicle (TRIS buffer). The samples are then assessed in GLP-1R agonist assays.
Compounds were incubated overnight at 37° C. in the presence of recombinant DPP4 or vehicle (TRIS buffer, pH 8.0). The samples were then assessed in GLP1R agonist assays as described elsewhere herein.

SMILES: CC[C@H](C)[C@H](NC(=O)[C@H](CO)NC(=O)[C@H](Cc1ccc(O)cc1)NC(=O)[C@H](CC(=O)O)NC(=O)[C@H](CO)NC(=O)[C@@H](NC(=O)[C@H](Cc1ccccc1)NC(=O)[C@@H](NC(=O)CNC(=O)[C@H](CCC(=O)O)NC(=O)[C@H](C)NC(=O)[C@@H](N)Cc1ccc(O)cc1)[C@@H](C)O)[C@@H](C)CC)C(=O)N[C@@H](C)C(=O)N[C@@H](CCSC)C(=O)N[C@@H](CC(=O)O)C(=O)N[C@@H](CCCCN)C(=O)N[C@H](C(=O)N[C@@H](Cc1c[nH]cn1)C(=O)N[C@@H](CCC(N)=O)C(=O)N[C@@H](CCC(N)=O)C(=O)N[C@@H](CC(=O)O)C(=O)N[C@@H](Cc1ccccc1)C(=O)N[C@H](C(=O)N[C@@H](CC(N)=O)C(=O)N[C@@H](Cc1c[nH]c2ccccc12)C(=O)N[C@@H](CC(C)C)C(=O)N[C@@H](CC(C)C)C(=O)N[C@@H](C)C(=O)N[C@@H](CCC(N)=O)C(=O)N[C@@H](CCCCN)C(=O)NCC(=O)N[C@@H](CCCCN)C(=O)N[C@@H](CCCCN)C(=O)N[C@@H](CC(N)=O)C(=O)N[C@@H](CC(=O)O)C(=O)N[C@@H](Cc1c[nH]c2ccccc12)C(=O)N[C@@H](CCCCN)C(=O)N[C@@H](Cc1c[nH]cn1)C(=O)N[C@@H](CC(N)=O)C(=O)N[C@H](C(=O)N[C@H](C(=O)N[C@@H](CCC(N)=O)C(=O)O)[C@@H](C)O)[C@@H](C)CC)C(C)C)[C@@H](C)CC [GIP, Gastric Inhibitory Polypeptide]
stability to FAP (in words) [1]: major potency losses | stability to DPP2 (in words) [2]: major potency losses

SMILES: CC[C@H](C)[C@H](NC(=O)[C@H](Cc1ccccc1)NC(=O)[C@H](CCC(=O)O)NC(=O)[C@H](CCCCN)NC(=O)[C@H](C)NC(=O)[C@H](C)NC(=O)[C@H](CCC(N)=O)NC(=O)CNC(=O)[C@H](CCC(=O)O)NC(=O)[C@H](CC(C)C)NC(=O)[C@H](Cc1ccc(O)cc1)NC(=O)[C@H](CO)NC(=O)[C@H](CO)NC(=O)[C@@H](NC(=O)[C@H](CC(=O)O)NC(=O)[C@H](CO)NC(=O)[C@@H](NC(=O)[C@H](Cc1ccccc1)NC(=O)[C@@H](NC(=O)CNC(=O)[C@H](CCC(=O)O)NC(=O)[C@H](C)NC(=O)[C@@H](N)Cc1c[nH]cn1)[C@@H](C)O)[C@@H](C)O)C(C)C)C(=O)N[C@@H](C)C(=O)N[C@@H](Cc1c[nH]c2ccccc12)C(=O)N[C@@H](CC(C)C)C(=O)N[C@H](C(=O)N[C@@H](CCCCN)C(=O)NCC(=O)N[C@@H](CCCNC(=N)N)C(N)=O)C(C)C [GLP-1, glucagon-like peptide-1, reference compound]
stability to FAP (in words) [3]: major potency losses | stability to DPP2 (in words) [4]: major potency losses

SMILES: CC[C@H](C)[C@H](NC(=O)[C@H](CO)NC(=O)[C@H](Cc1ccc(O)cc1)NC(=O)[C@H](CC(=O)O)NC(=O)[C@H](CO)NC(=O)[C@@H](NC(=O)[C@H](Cc1ccccc1)NC(=O)[C@@H](NC(=O)CNC(=O)[C@H](CCC(=O)O)NC(=O)[C@H](C)NC(=O)[C@H](Cc1ccc(O)cc1)NCC(F)(F)F)[C@@H](C)O)[C@@H](C)CC)C(=O)N[C@@H](C)C(=O)N[C@@H](CCSC)C(=O)N[C@@H](CC(=O)O)C(=O)N[C@@H](CCCCN)C(=O)N[C@H](C(=O)N[C@@H](Cc1c[nH]cn1)C(=O)N[C@@H](CCC(N)=O)C(=O)N[C@@H](CCC(N)=O)C(=O)N[C@@H](CC(=O)O)C(=O)N[C@@H](Cc1ccccc1)C(=O)N[C@H](C(=O)N[C@@H](CC(N)=O)C(=O)N[C@@H](Cc1c[nH]c2ccccc12)C(=O)N[C@@H](CC(C)C)C(=O)N[C@@H](CC(C)C)C(=O)N[C@@H](C)C(=O)N[C@@H](CCC(N)=O)C(=O)N[C@@H](CCCCN)C(=O)NCC(=O)N[C@@H](CCCCN)C(=O)N[C@@H](CCCCN)C(=O)N[C@@H](CC(N)=O)C(=O)N[C@@H](CC(=O)O)C(=O)N[C@@H](Cc1c[nH]c2ccccc12)C(=O)N[C@@H](CCCCN)C(=O)N[C@@H](Cc1c[nH]cn1)C(=O)N[C@@H](CC(N)=O)C(=O)N[C@H](C(=O)N[C@H](C(=O)N[C@@H](CCC(N)=O)C(=O)O)[C@@H](C)O)[C@@H](C)CC)C(C)C)[C@@H](C)CC [I-4]
stability to FAP (in words) [3]: stable | stability to DPP2 (in words) [4]: stable | DPP4 degradation / resistance (in words) [10]: resistant | DPP4 degradation / resistance (in words) ([10]; listed as I4): stable

Now from value to compound, other results behind:

DPP4 degradation / resistance (in words) ([5]; GLP-2R readout): degraded by DPP4 | loss in potency induced by DPP4 ([5]; GLP-2R readout, N=4): > 40 fold | peptide degraded by DPP4 ([5]; inferred from potency loss): > 97% and ~97%
SMILES: CC[C@H](C)[C@H](NC(=O)[C@H](Cc1ccccc1)NC(=O)[C@H](CC(=O)O)NC(=O)[C@H](CCCN=C(N)N)NC(=O)[C@H](C)NC(=O)[C@H](C)NC(=O)[C@H](CC(C)C)NC(=O)[C@H](CC(N)=O)NC(=O)[C@H](CC(=O)O)NC(=O)[C@H](CC(C)C)NC(=O)[C@@H](NC(=O)[C@@H](NC(=O)[C@H](CC(N)=O)NC(=O)[C@H](CCSC)NC(=O)[C@H](CCC(=O)O)NC(=O)[C@H](CC(=O)O)NC(=O)[C@H](CO)NC(=O)[C@H](Cc1ccccc1)NC(=O)[C@H](CO)NC(=O)CNC(=O)[C@H](CC(=O)O)NC(=O)[C@H](C)NC(=O)[C@@H](N)Cc1cnc[nH]1)[C@@H](C)O)[C@@H](C)CC)C(=O)N[C@@H](CC(N)=O)C(=O)N[C@@H](Cc1c[nH]c2ccccc12)C(=O)N[C@@H](CC(C)C)C(=O)N[C@H](C(=O)N[C@@H](CCC(N)=O)C(=O)N[C@H](C(=O)N[C@@H](CCCCN)C(=O)N[C@H](C(=O)N[C@H](C(=O)N[C@@H](CC(=O)O)C(=O)O)[C@@H](C)O)[C@@H](C)CC)[C@@H](C)O)[C@@H](C)CC [GLP-2, glucagon-like peptide-2, reference compound]
half-life in vivo [6]: 7 min

DPP4 degradation / resistance (in words) [9]: only partial DPP4 resistance
SMILES: CC[C@H](C)[C@H](NC(=O)[C@H](Cc1ccccc1)NC(=O)[C@H](CC(=O)O)NC(=O)[C@H](CCCNC(=N)N)NC(=O)[C@H](C)NC(=O)[C@H](C)NC(=O)[C@H](CC(C)C)NC(=O)[C@H](CC(N)=O)NC(=O)[C@H](CC(=O)O)NC(=O)[C@H](CC(C)C)NC(=O)[C@@H](NC(=O)[C@@H](NC(=O)[C@H](CC(N)=O)NC(=O)[C@H](CCSC)NC(=O)[C@H](CCC(=O)O)NC(=O)[C@H](CC(=O)O)NC(=O)[C@H](CO)NC(=O)[C@H](Cc1ccccc1)NC(=O)[C@H](CO)NC(=O)CNC(=O)[C@H](CC(=O)O)NC(=O)CNC(=O)[C@@H](N)Cc1c[nH]cn1)[C@@H](C)O)[C@@H](C)CC)C(=O)N[C@@H](CC(N)=O)C(=O)N[C@@H](Cc1c[nH]c2ccccc12)C(=O)N[C@@H](CC(C)C)C(=O)N[C@H](C(=O)N[C@@H](CCC(N)=O)C(=O)N[C@H](C(=O)N[C@@H](CCCCN)C(=O)N[C@H](C(=O)N[C@H](C(=O)N[C@@H](CC(=O)O)C(=O)O)[C@@H](C)O)[C@@H](C)CC)[C@@H](C)O)[C@@H](C)CC [Gattex, teduglutide]
SBS patients able to reduce their PN regimen by at least 1 day/week [7]: 68% | patients who failed to reduce their PN regimen by even 1 day/week [7]: 32% | treated patients entirely independent of PN [7]: 4 of 52 | in vivo half-life [6]: ~3 h | bowel weight [8]: significant increase in both large and small bowel weights
